# Patent US11110092B2, “Methods of treating hematologic cancers” (BIOCRYST PHARMACEUTICALS, INC, priority 2007, dated 2021)
# Where two headings read alike, the source gives them in different places. Peptide text beside a SMILES is read from it. * marks the point of attachment. Cbz = O=C(OCc1ccccc1)*; CH2F = FC*
# Columns and labels:
# [1] = system: primary leukemic cells from patients with CLL; parameters: cell death: dose or concentration left out as unconfirmed
# Procedure: The present in vitro study was carried out in primary leukemic lymphocytes from 43 patients diagnosed with CLL according to the World Health Organization classification. Informed consent was obtained from each patient.
# Peripheral blood mononuclear cells (PBMCs) cells were isolated by Ficoll/Hypaque sedimentation (Seromed, Berlin, Germany). Cells were either used directly or cryopreserved in liquid nitrogen in the presence of 10% dimethyl sulfoxide and 90% heat-inactivated fetal bovine serum (FBS, Gibco Paisley, Scotland, UK).
# Cells were incubated for different time points with forodesine at doses ranging from 1 to 12 μM in the presence or absence of 10-20-30 μM of deoxyguanosine (dGuo). When indicated, cells were pre-incubated for 1 hour with the pan-caspase inhibitor z-VAD.fmk (benzyloxy-carbonyl-Val-Ala-Asp-fluoro-methylketone; Bachem, Bubendorf, Switzerland) at 80 the caspase-8 inhibitor z-IETD.fmk at 50 μM (Z-Ile-Glu(OMe)Thr-DL-Asp (OMe)-fluoromethylketone, Bachem), 2′-deoxycytidine (5-10-20 μM, Sigma), N-acetyl-L-cysteine (NAC, 25 mM), Tiron (5 mM, 4,5-Dihydroxy-1,3-Benzene-disulfonic acid, Sigma) or GSH (2 mM; Sigma). […] Cell viability and apoptosis induction was analyzed by changes in cell complexity by means of FSC/SSC, quantification of phosphatidyl serine (PS) exposure by double staining with Annexin-V conjugated to fluorescein isothiocyanate (FITC) and propidium iodide (PI) (BenderMedsystems, Vienna, Austria). For the analysis of apoptosis in the CD3^+ and CD19^− populations, PBMCs were labeled simultaneously with anti-CD3-FITC (Immunotech, Marseille, France), anti-CD19-PE (Becton Dickinson) and Annexin-V-APC. Cell viability and cytotoxicity were plotted as percentage with respect to control cells. Loss of mitochondrial transmembrane potential (ΔΨm) were evaluated by staining cells with 20 nM of DiOC6 (3,3-diexyloxacarbocyanine iodide, Molecular Probes) and reactive oxygen species (ROS) production was determined by staining cells with 2 μM dihydroethidine (DHE; Molecular Probes) and flow cytometry analysis. […] In brief, cells were washed once in PBS and fixed in paraformaldehyde 4%, permeabilized with 0.1% saponin and 0.5% bovine serum albumin (BSA). […] After several washes in permeabilization buffer, cells were incubated with a secondary goat anti-mouse FITC (DAKO) or goat anti-rabbit FITC (Supertechs) antibody and washed again with permeabilization buffer. Ten thousand stained cells per sample were then analyzed by flow cytometry.
# [2] = system: mitochondrial transmembrane potential in CLL cells; assay: Loss of mitochondrial transmembrane potential (DiOC6 staining, flow cytometry); type: cell-based, human; conditions: for effect of pre-incubation on Δψm loss induced by forodesine: ROS scavenger pre-incubation
# Procedure: (§1) Cells were incubated for different time points with forodesine at doses ranging from 1 to 12 μM in the presence or absence of 10-20-30 μM of deoxyguanosine (dGuo). When indicated, cells were pre-incubated for 1 hour with the pan-caspase inhibitor z-VAD.fmk (benzyloxy-carbonyl-Val-Ala-Asp-fluoro-methylketone; Bachem, Bubendorf, Switzerland) at 80 the caspase-8 inhibitor z-IETD.fmk at 50 μM (Z-Ile-Glu(OMe)Thr-DL-Asp (OMe)-fluoromethylketone, Bachem), 2′-deoxycytidine (5-10-20 μM, Sigma), N-acetyl-L-cysteine (NAC, 25 mM), Tiron (5 mM, 4,5-Dihydroxy-1,3-Benzene-disulfonic acid, Sigma) or GSH (2 mM; Sigma). […] Loss of mitochondrial transmembrane potential (ΔΨm) were evaluated by staining cells with 20 nM of DiOC6 (3,3-diexyloxacarbocyanine iodide, Molecular Probes) and reactive oxygen species (ROS) production was determined by staining cells with 2 μM dihydroethidine (DHE; Molecular Probes) and flow cytometry analysis.
# [3] = system: dCK phosphorylated at Ser-74 in CLL cells; assay: Western blot of dCK phosphorylation at Ser-74; type: cell-based, human
# [4] = system: BCL-2 in CLL cells; assay: BCL-2 protein levels by immunoblotting; type: cell-based, human; conditions: forodesine treatment
# [5] = Gandhi et al. 2005; Korycka et al. 2007; cited from earlier work
# [6] = system: BAX and BAK in CLL cells; assay: BAX and BAK activation by flow cytometry (conformational change); type: cell-based, human; conditions: incubation of CLL cells with forodesine
# [7] = system: p53 in CLL cells; assay: p53 protein stabilization by immunoblotting; type: cell-based, human; conditions: CLL cases with no 17p deletion
# [8] = system: BID in CLL cells; assay: BID processing by immunoblotting; type: cell-based, human; conditions: forodesine treatment
# [9] = system: MCL-1 in CLL cells; assay: MCL-1 protein levels by immunoblotting; type: cell-based, human; conditions: forodesine treatment
# [10] = system: BIM in CLL cells; assay: BIM protein levels by immunoblotting; type: cell-based, human; conditions: forodesine treatment
# [11] = system: ROS in CLL primary cells; assay: Reactive oxygen species production (dihydroethidine staining, flow cytometry); type: cell-based, human; conditions: for effect of pre-incubation on ROS production induced by forodesine: ROS scavenger pre-incubation
# Procedure: as §1
# [12] = system: XIAP and survivin in CLL cells; assay: XIAP and survivin levels by immunoblotting; type: cell-based, human; conditions: forodesine treatment
# [13] = system: intracellular dGTP in CLL primary cells; assay: Measurement of intracellular dGTP levels (DNA polymerase assay); type: cell-based, human; conditions: forodesine 2 μM and dGuo 10 μM; 26 CLL patients; 18 hours
# Procedure: 15×10^6 of CLL primary cells were incubated with or without forodesine (2 μM) and dGuo (10 μM) or fludarabine (1 μg/ml) for 18 hours and the nucleotides were extracted with 60% methanol and intracellular dGTP levels were quantified by DNA polymerase assay as modified by Sherman and Fyfe (Sherman et al., Anal Biochem, 180(2), 222-226 (1989)). Data were expressed in fold induction of intracellular dGTP levels respect of control cells. In parallel, cell viability at 24 and 48 hours were also evaluated.
# [14] = system: caspase-9, -8 and -3 in CLL cells; assay: Caspase activation by immunoblotting; type: cell-based, human; conditions: as early as 10 hours of forodesine treatment
# [15] = system: FOXO1 and FOXO3a in CLL cells; assay: FOXO1 and FOXO3a levels by immunoblotting; type: cell-based, human; conditions: CLL cells treated with forodesine
# [16] = system: p73 in CLL cells; assay: p73 mRNA (real time RT-PCR) and TAp73 protein levels; type: cell-based, human; conditions: all CLL cases analyzed
# Procedure: Cells were lysed for 15 min in RIPA buffer supplemented with protease and phosphatase inhibitors (leupeptine 10 μg/ml, apoprotinine 10 μg/ml, 1 μM PMSF, 1 μM sodium ortovanadate, 1 μM NaF, 2 μM sodium pyrophosphate decahydrate (Sigma)). Total cellular proteins were separated by SDS-PAGE under reducing conditions and transferred to Immobilon-P (Millipore) membranes. […] Equal protein loading was confirmed with β-actin or α-tubulin expression and relative protein quantification was done with Image Gauge Fujifilm software (Fuji). […] The expression levels of p73 and Mcl-1 were determined in an ABI Prism 7900HT Sequence Detection System (Applied Biosystems, Foster City, Calif.) using pre-designed Assay-on-demand (Applied Biosystems). The relative expression of each gene was quantified by the comparative cycle threshold (Ct) method (ΔΔCt), using GUS as an endogenous control. mRNA expression levels were given as arbitrary quantitative PCR units, taking as a calibrator the control sample (untreated) of each case.
# [17] = caspase-8 inhibitor pre-incubation
molecule,measurement,setting,value
"CC[C@H](C)[C@H](NC(=O)OCc1ccccc1)C(=O)N[C@@H](CCC(=O)OC)C(=O)N[C@H](C(=O)N[C@@H](CC(=O)OC)C(=O)CF)[C@@H](C)O (racemic) [z-IETD.fmk, Z-Ile-Glu(OMe)Thr-DL-Asp (OMe)-fluoromethylketone]",effect on forodesine apoptosis induction (Annexin V staining),[1]; [17],partially blocked
same,reversion of ΔΨm loss induced by forodesine,[2]; [17],more pronounced
Cl.Cn1c(CCCC(=O)O)nc2cc(N(CCCl)CCCl)ccc21 [Bendamustine],phosphorylated form (at Ser-74) of dCK,[3],not exerted
Nc1nc(F)nc2c1ncn2[C@@H]1O[C@H](CO)[C@@H](O)[C@@H]1O [Fludarabine],mean cytotoxicity,[1],25.1±13%
same,mean cytotoxicity as single agents,[1],50.6±11%
Cl.O=c1[nH]cnc2c([C@@H]3N[C@H](CO)[C@@H](O)[C@H]3O)c[nH]c12 [Forodesine],BCL-2 protein levels,[4],not affected
same,toxicity profile,[5],low toxicity profile
same,activation of BAX and BAK,[6],induced the conformational change of BAX and BAK
same,p53 protein,[7],induce stabilization of p53 protein
same,BID protein,[8],induced a decreased of BH3-only protein BID
same,MCL-1 protein levels,[9],considerably decreased
same,BIM protein levels,[10],induced an increase
same,ROS production,"[11]; CLL primary cells, evident after 10 hours",induced the production of ROS
same,XIAP and survivin levels,[12],decrease of the inhibitors of apoptosis XIAP and survivin
same,increase in intracellular dGTP levels with respect to control basal levels,[13],up to 96 times fold increase
same,"activation of caspase-9, -8 and -3 (processing of pro-inactive form)",[14],dose- and time-dependent activation
same,FOXO1 and FOXO3a levels,[15],"induced an increase in both, FOXO1 and FOXO3a"
same,cytotoxic effect of agent alone,[1],did not induce a cytotoxic effect
same,share of cases with cytotoxic effect between 40-60%,[1],41.8%
same,response of p53 deleted CLL cases,"[1]; 11 CLL patients with 17p deletions, Forodesine 2 μM+dGuo 20 μM, 48 hours",high response
same,response in samples with no or low in vitro response to bendamustine 25 μM and/or fludarabine 1 μg/ml,[1]; 12 of 32 CLL patient samples,high response
same,mean cytoxicity,"[1]; CLL cells with high levels of ZAP-70, 22 CLL patients",57.9%±12
same,mean cytoxicity with respect to control,"[1]; CLL cells with low levels of ZAP-70, 17 CLL patients",58.1%±11
same,response of CLL cells with low or no sensitivity to Bendamustine or Fludarabine,[1]; Forodesine 2 μM and dGuo 10-20 μM,good response
same,cell death (Annexin-V+ staining),"[1]; forodesine 2-5-10 μM with dGuo 10-20 or 30 μM, 48 hours",induced cell death
same,"response in CLL cells with 13q deletion, 11q deletion and 17p deletion",[1]; forodesine-induced cytotoxicity,good response
same,"cell death, CLL fresh samples","[1]; n=10, 48 hours",56.6%±6.4
same,"cell death, cryopreserved primary CLL samples","[1]; n=32, 48 hours",58.3%±11
same,phosphorylated form (at Ser-74) of dCK,[3]; western blot in CLL cells,increase in the phosphorylated form
same,p73 mRNA and TAp73 protein levels,[16],clear up-regulation
same,mitochondrial transmembrane potential (Δψm),"[2]; early times, evident after 10 hours",induced loss of mitochondrial transmembrane potential
"CCOC(=O)CNC(=O)[C@H](CS)NC(=O)CC[C@H](N)C(=O)O [GSH, glutathione-reduced ethyl ester]",effect of pre-incubation on ROS production induced by forodesine,[11],moderated
same,effect of pre-incubation on Δψm loss induced by forodesine,[2],reduced Δψm loss
"CC(=O)N[C@@H](CS)C(=O)O [NAC, N-acetyl-L-cysteine]",effect of pre-incubation on ROS production induced by forodesine,[11],practically reverted ROS production
same,effect of pre-incubation on Δψm loss induced by forodesine,[2],reduced Δψm loss
"O=S(=O)(O)c1cc(O)c(O)c(S(=O)(=O)O)c1 [Tiron, 4,5-Dihydroxy-1,3-Benzene-disulfonic acid]",effect of pre-incubation on ROS production induced by forodesine,[11],practically reverted ROS production
same,effect of pre-incubation on Δψm loss induced by forodesine,[2],reduced Δψm loss
"Nc1nc2c(ncn2[C@H]2C[C@H](O)[C@@H](CO)O2)c(=O)[nH]1 [dGuo, deoxyguanosine]",cytotoxic effect of agent alone,[1],did not induce a cytotoxic effect
"Nc1ccn([C@H]2C[C@H](O)[C@@H](CO)O2)c(=O)n1 [deoxycytidine, 2′-deoxycytidine]",effect of pre-incubation on forodesine-induced cell death,[1]; deoxycytidine 5-10 μM,inhibited forodesine-induced cell death
same,effect on cell death induced by bendamustine,[1]; deoxycytidine pre-incubation,not reverted
same,effect on loss of cell viability induced by fludarabine,[1]; deoxycytidine pre-incubation,reverted the loss of cell viability
"COC(=O)C[C@H](NC(=O)[C@H](C)NC(=O)[C@@H](NC(=O)OCc1ccccc1)C(C)C)C(=O)CF [z-VAD.fmk, benzyloxy-carbonyl-Val-Ala-Asp-fluoro-methylketone] (Cbz-Val-Ala-Asp(OMe)-CH2F)",effect on phosphatidylserine exposure after forodesine treatment,"[1]; broad range caspase inhibitor pre-incubation, forodesine 24 hours",partially reduced phospatidylserine exposure
Rituximab,cell death,"[1]; single agent or combined with forodesine, 24 hours",low
